{"source": "PubChem BioAssay AID1996", "data": [{"conditions": "buffer; pH 7.4; 200.0 µM", "units": {"solubility kinetic": "µg/mL"}, "values": [{"smiles": "O=C(CCn1c(=O)oc2cc(Cl)ccc21)Nc1ccc(O)cc1", "solubility kinetic": "> 49.9"}, {"smiles": "CCCc1nnc(SCC(=O)NC2CC2)n1C", "solubility kinetic": "> 38.2"}, {"smiles": "NC(=O)CSc1ccc(S(=O)(=O)N2CCOCC2)cn1", "solubility kinetic": "> 47.6"}, {"smiles": "CCN(CC(=O)NCc1ccccn1)S(=O)(=O)c1ccc(OC)cc1", "solubility kinetic": "> 54.5"}, {"smiles": "COc1ccc2nc(C(F)(F)Cl)c(C#N)c(N)c2c1", "solubility kinetic": 3.8}, {"smiles": "CC1CC(C)CN(C(C)C(=O)Nc2cc(S(=O)(=O)N3CCCCC3)ccc2Cl)C1", "note": "(stereo not drawn)", "solubility kinetic": "< 0.3"}, {"smiles": "O=C(NCCc1c[nH]c2ccccc12)c1ccc2c(c1)OCO2", "solubility kinetic": 44.5}, {"smiles": "O=C(O)/C=C/c1ccc(Oc2ncccn2)cc1", "solubility kinetic": "> 36.3"}, {"smiles": "O=C(NCCN1C(=O)S/C(=C\\c2ccc(Cl)cc2)C1=O)C1=COCCO1", "solubility kinetic": 2.6}, {"smiles": "COc1cccc(NC(=S)N(CCN2CCCCC2)Cc2ccco2)c1", "solubility kinetic": 47.3}, {"smiles": "CC(C)=CC(=O)OCc1cc([N+](=O)[O-])cc2c1OCOC2", "solubility kinetic": 3.3}, {"smiles": "CCc1ccc(-n2c([O-])c(C(C)=O)c(=O)[nH]c2=O)cc1.C[NH+](C)C", "solubility kinetic": 38.5}, {"smiles": "CN(C)S(=O)(=O)c1cccc(NC(=O)COC(=O)c2cccnc2Cl)c1", "solubility kinetic": "> 59.7"}, {"smiles": "COC(=O)c1ccc(NC(=S)NN2CCOCC2)cc1", "solubility kinetic": "> 44.3"}, {"smiles": "O=C(c1cccc(C(F)(F)F)c1)N1CCN(CCc2ccccc2)CC1", "solubility kinetic": "> 54.4"}, {"smiles": "CC(CCc1ccccc1)NS(=O)(=O)c1ccccc1Cl", "note": "(stereo not drawn)", "solubility kinetic": 20}, {"smiles": "Fc1ccc(-n2c(=S)[nH]c3cccnc32)cc1", "solubility kinetic": "> 36.8"}, {"smiles": "Cn1c(=O)n(Cc2ccccc2Cl)c2ccccc21", "solubility kinetic": "> 40.9"}, {"smiles": "O=C(COC(=O)c1ccc(Cl)nc1)NC1CCCc2ccccc21", "note": "(stereo not drawn)", "solubility kinetic": 36.1}, {"smiles": "CCOC(=O)Cc1csc(NC(=O)Cc2ccc(Cl)cc2)n1", "solubility kinetic": 5.5}, {"smiles": "O=S1(=O)CC(O)C(N(CCO)C(=S)Nc2ccccc2)C1", "note": "(stereo not drawn)", "solubility kinetic": 46.2}, {"smiles": "CC(=O)Nc1ccc(SC(C)C(=O)NC2CCCC2)cc1", "note": "(stereo not drawn)", "solubility kinetic": "> 46"}, {"smiles": "Cc1ccc(CCC(=O)NCc2ccccc2)o1", "solubility kinetic": "> 36.5"}, {"smiles": "Cc1ccc(OCCC(=O)OCC(=O)NC2CCCC2)cc1", "solubility kinetic": "> 45.8"}, {"smiles": "CC(NC(=O)Cn1cccc1)c1ccccc1", "note": "(stereo not drawn)", "solubility kinetic": "> 34.2"}, {"smiles": "COc1ccc(/C=C/C(=O)O)cc1S(=O)(=O)N1CCc2ccccc21", "solubility kinetic": "> 53.9"}, {"smiles": "O=C1CSC(c2ccc([N+](=O)[O-])cc2)N1c1ccccc1", "note": "(stereo not drawn)", "solubility kinetic": 42}, {"smiles": "CC(=O)NCCc1cnc[nH]1", "solubility kinetic": "> 23"}, {"smiles": "O=C(C1CCN(S(=O)(=O)c2c(Cl)cccc2Cl)CC1)N1CCCC1", "solubility kinetic": "> 58.7"}, {"smiles": "Cc1cccn2c(=O)c(C=O)c(N3CC(C)OC(C)C3)nc12", "note": "(stereo not drawn)", "solubility kinetic": "> 45.2"}, {"smiles": "COc1ccc2nc(NC(=O)C3CC(=O)N(c4ccccc4)C3)sc2c1", "note": "(stereo not drawn)", "solubility kinetic": 0.7}, {"smiles": "O=C(Nc1ncc2c(n1)-c1ccccc1OC2)c1cccc([N+](=O)[O-])c1", "solubility kinetic": 1.4}, {"smiles": "N#Cc1ccc2c(c1)NC(=O)C1CCCN21", "note": "(stereo not drawn)", "solubility kinetic": 27.8}, {"smiles": "Cn1c(C2=C(O)CN(Cc3ccccc3)C2=N)nc2ccccc21", "solubility kinetic": "> 47.8"}, {"smiles": "O=C1C2CCCCN2C(=O)N1CCCCN1CCN(c2cccc(Cl)c2)CC1", "note": "(stereo not drawn)", "solubility kinetic": 54.2}, {"smiles": "COc1ccc(C(=O)OCC(=O)NC(=O)NC2CCCC2)cc1[N+](=O)[O-]", "solubility kinetic": 6.4}, {"smiles": "CN1C(=O)CC(c2ccccc2)Nc2ccccc21.Cl", "note": "(stereo not drawn)", "solubility kinetic": "> 43.3"}, {"smiles": "Cc1ccc(NC(=O)CCC(=O)Nc2ccc(C)cc2)cc1", "solubility kinetic": "< 0.3"}, {"smiles": "O=C(Nc1cccc(Cl)c1)OCCOc1ccccc1", "solubility kinetic": "< 0.6"}, {"smiles": "O=C(COC(=O)c1ccc2ccccc2c1O)NCc1ccccc1", "solubility kinetic": 3}, {"smiles": "CN(C(=O)C(C)(C)C)C1c2c(ccc3ccccc23)OCC1CO", "note": "(stereo not drawn)", "solubility kinetic": 6.6}, {"smiles": "O=C(O)CCN1C(=O)c2ccc(NC(=O)c3ccco3)cc2C1=O", "solubility kinetic": "> 49.2"}, {"smiles": "O=C(Cc1ccc(Cl)cc1Cl)NC1CCCCCC1", "solubility kinetic": 2.2}, {"smiles": "CCOc1nc(-c2ccccc2)c2cc(Br)ccc2n1", "solubility kinetic": "< 0.4"}, {"smiles": "CC(OC(=O)c1ccc(Cl)cc1O)C(=O)NCCC1=CCCCC1", "note": "(stereo not drawn)", "solubility kinetic": 32.9}, {"smiles": "COCCn1c(SCC(=O)NC2CCCC2)nnc1-c1ccco1", "solubility kinetic": "> 52.6"}, {"smiles": "Cc1ccnc(NC(=O)c2cc(F)c(F)cc2Cl)n1", "solubility kinetic": "> 42.6"}, {"smiles": "CCOC(=O)c1cc(-c2csc(-c3ccc(C(F)(F)F)cc3)n2)on1", "solubility kinetic": "< 0.4"}, {"smiles": "O=C(c1ccc(F)cc1)C1CCN(Cc2ccc(F)cc2)CC1", "solubility kinetic": 36.2}, {"smiles": "COc1ccc(CCNC(=O)c2ccc(C)s2)cc1OC", "solubility kinetic": "> 45.8"}, {"smiles": "O=C(NC1C2CC3CC(C2)CC1C3)c1ccc(Br)o1", "note": "(stereo not drawn)", "solubility kinetic": 27.8}, {"smiles": "O=C(Nc1ccccc1Cl)c1sccc1-c1ccccc1", "solubility kinetic": "< 0.7"}, {"smiles": "O=C(CCCc1ccccc1)Nc1nccs1", "solubility kinetic": 28.5}, {"smiles": "N#Cc1c(F)cccc1NCCCn1ccnc1", "solubility kinetic": 30.7}, {"smiles": "CC(C)C(=O)NCc1cc(-c2ccccc2)no1", "solubility kinetic": 32.5}, {"smiles": "O/N=C/c1ccnc(SCc2ccccc2)n1", "solubility kinetic": 31.4}, {"smiles": "COc1ccc(N2C(=O)CCC2(C(N)=O)c2ccccc2)cc1", "note": "(stereo not drawn)", "solubility kinetic": "> 46.6"}, {"smiles": "COc1ccc(-c2c(C)nn(-c3ccccc3)c2NC(C)=O)cc1OC", "solubility kinetic": "> 52.7"}]}]}
